According to patent publication US6461822B2, “Methods of screening compounds for their ability to inhibit the production of inflammatory cytokines” (Pfizer Inc., priority 1998, dated 2002):
Values belong to the compound of their own block, whether it stands above or below them.

Legend:
[1] = test system: ATP-induced IL-1β production; assay: IL-1β production assay, ELISA method (ATP-induced IL-1β production by LPS-activated human monocytes); type: cell-based; conditions: for ATP-induced IL-1β production: human monocytes treated continuously with agent, FIG. 2A
Description: IL-1β production assay—ELISA method. Human monocytes were isolated from heparinized blood collected from normal volunteers. 100 ml of blood was diluted with 20 ml of RPMI 1640 medium that contained 5% FBS, 25 mM Hepes, pH 7.3, 2 mM glutamine, and 1% penicillin/streptomycin (Maintenance Medium). 30 ml of this suspension then was layered onto 15 ml of Lymphocyte Separation Medium (Organo Technicon) and centrifuged for 30 min at 1400 rpm at room temperature in a clinical centrifuge. The resulting mononuclear cell layer was harvested, diluted with Maintenance Medium, and the cells were pelleted by centrifugation. The recovered cells were washed with Maintenance Medium by repeated centrifugation. Each well of a 96 well plate was seeded with 2×10^5 mononuclear cells in 0.1 ml of Maintenance Medium; monocytes were allowed to adhere for 2 hr, then the medium (containing non-adherent cells) was replaced with 0.1 ml of fresh medium, and the monocytes were incubated overnight at 37° C. Monocytes were activated with 10 ng/ml of LPS (E. coli; serotype 055:B5) for 2 hr after which the medium was replaced with 0.1 ml of RPMI 1640, 20 mM Hepes, pH 6.9, 100 units/ml penicillin, 100 μg/ml streptomycin, 1% FBS (Release Medium) containing the indicated concentration of test agent; compounds were dissolved in DMSO and the final DMSO concentration in all wells was maintained at 0.2%. […] Cells subsequently were removed by centrifugation, media supernatants were harvested, and IL-1β levels within the media samples were determined with a specific ELISA kit (R and D Systems); each data point is the average of quadruplicate determinations.

[2] = test system: soluble polypeptides of human monocytes (31, 32, 56 kDa); assay: Identification of DASU binding proteins: labeling of monocyte polypeptides by [14C]DASUs; conditions: [14C]labeled ligand 100 nM to 10 μm; FIG. 3
Description: Identification of DASU binding proteins. Human monocytes (isolated as described above and plated on 6 cm dishes) were treated with [^14C]Compound 1 in 3 ml of Release Medium (devoid of FBS) for 60 min after which cells were washed twice with 5 ml of Release Medium containing 5% FBS and suspended in 1 ml of 25 mM Hepes, pH 7, 150 mM NaCl, 1 μg/ml pepstatin, 1 μg/ml leupeptin, containing 0.5% saponin. Lysates were clarified by ultracentrifugation and the recovered soluble fractions were exchanged into 10 mM Tris, pH 8, containing 1 μg/ml each of pepstatin and leupeptin with the use of Centricon 30 concentration units. Final concentrates were lyophilized and then solubilized in SDS sample buffer.

[3] = test system: porcine liver carboxylesterase; assay: in vitro carboxylesterase enzyme assay with p-nitrophenyl propionate; conditions: co-incubation with 100 μM
rDBP-32 = molecular target: T1, rDBP-32 (Homo sapiens, UniProt O00299); assay: Labeling rDBPs with [14C]Compound 2 (SDS PAGE, phosphorimager); type: binding; conditions: FIG. 7A
T1 construct: cleaved with thrombin to yield full-length rDBP-31 and rDBP-32 polypeptides; GST (N, cleaved yes); made in house; host or cells: E. coli (as for DBP-31: BL21 [DE3], pGEX2T)
Source text: (§1) Labeling rDBPs. […].

[4] = molecular target: bacterial glutathione S-transferase (Schistosoma japonicum, UniProt P08515); type: binding; conditions: identical conditions; FIG. 7A
Chain of bacterial glutathione S-transferase (P08515 2-218 limits assumed): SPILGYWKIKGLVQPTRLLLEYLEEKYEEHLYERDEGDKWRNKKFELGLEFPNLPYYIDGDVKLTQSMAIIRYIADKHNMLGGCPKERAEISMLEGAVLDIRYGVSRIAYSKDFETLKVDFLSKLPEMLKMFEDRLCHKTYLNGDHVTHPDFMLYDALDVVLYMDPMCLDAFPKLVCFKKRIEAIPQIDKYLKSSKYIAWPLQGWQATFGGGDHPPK
Source text: as §1

Structure (SMILES): O=[N+]([O-])c1ccc(OCC2CO2)cc1 (centres unmarked) [2-(4-nitro-phenoxymethyl)-oxirane, reference compound]
ATP-induced IL-1β production [1]: did not inhibit

melting point: 126 to 130 °C
Structure (SMILES): CC(C)c1cc(Cl)cc(C(C)C)c1NC(=O)NS(=O)(=O)c1cc(C2CO2)ccc1F (centres unmarked) [Compound 1, 1-(4-Chloro-2,6-diisopropyl-phenyl)-3-[2-fluoro-5-oxiranylbenzene-sulfonyl]-urea]
radiolabeled polypeptides in soluble fraction of monocyte extracts [2]: several radiolabeled polypeptides were detected
IL-1 production of [14C]DASU-treated cells exposed to ATP ([1]; FIG. 3B): dose-dependent inhibition
ATP-induced IL-1β production [1]: dose-dependent inhibition

Structure (SMILES): O=C(Nc1c2c(cc3c1CCC3)CCC2)NS(=O)(=O)c1cc(C2CO2)ccc1F (centres unmarked) [Compound 2, 1-(1,2,3,5,6,7-Hexahydro-s-indacen-4-yl)-3-[2-fluoro-5-oxiranyl-benzenesulfonyl]-urea]
reduction of observed carboxylesterase enzymatic activity [3]: 67%
radiolabeled polypeptides in soluble fraction of monocyte extracts [2]: several radiolabeled polypeptides were detected
labeling of rDBP-32 (rDBP-32): labeled by [^14C]Compound 2 in a concentration dependent manner
ATP-induced IL-1β production [1]: dose-dependent inhibition
IL-1β production after pretreatment and ATP in absence of compound ([1]; pretreated 60 min, then ATP without compound, FIG. 2B): remained suppressed
labeling of bacterial glutathione S-transferase [4]: not labeled
